The first experiment deals with HL-60. In words: Relative differentiating activity of HL-60 cells when the reference value of […] is defined as 1. It is filed as functional, Homo sapiens.
In turn, `C=C1/C(=C\C=C2/CCCC3(C)C2CCC3[C@H](C)/C=C/CC(O)(C(F)(F)F)C(F)(F)F)C[C@@H](O)C[C@@H]1O` (stereo not given in full) had a Relative differentiating activity of 30.
Still for that read-out and setting: with `C=C1/C(=C\C=C2/CCCC3(C)C2CCC3[C@H](C)CCCC(F)(F)C(C)(C)O)C[C@@H](O)C[C@@H]1O` (stereo not given in full) the figure was 10; with `C=C1/C(=C\C=C2/CCCC3(C)C2CCC3[C@H](C)/C=C/CC(O)(CC)CC)C[C@@H](O)C[C@@H]1O` (stereo not given in full), 60.
`C=C1/C(=C\C=C2/CCCC3(C)C2CCC3[C@H](C)/C=C/CCCC(C)(C)O)C[C@@H](O)C[C@@H]1O` (stereo not given in full): the Relative differentiating activity is listed as 10.
Still for that read-out and setting: with `C=C1/C(=C\C=C2/CCCC3(C)C([C@H](C)CC#CC(C)(C)O)=CCC23)C[C@@H](O)C[C@@H]1O` (stereo not given in full) the figure was 10; with `C=C1/C(=C\C=C2/CCCC3(C)C2CCC3[C@H](C)/C=C/CCC(C)(C)O)C[C@@H](O)C[C@@H]1O` (stereo not given in full), 10.
On the same count and under the same terms, under `C=C1/C(=C\C=C2/CCCC3(C)C([C@H](C)CC#CC(O)(C(F)(F)F)C(F)(F)F)=CCC23)C[C@@H](O)C[C@@H]1O` (stereo not given in full) stands 80.

The subject of the next experiment is U-937. Description: Relative differentiating activity of U 937 cells when the reference value of […] is defined as 1. In kind it is functional, Homo sapiens.
`C=C1/C(=C\C=C2/CCCC3(C)C2CCC3[C@@H](C)CCCCC(C)(C)O)C[C@@H](O)C[C@@H]1O` (stereo not given in full) gave a Relative differentiating activity of 200.
On the same count and under the same terms, with `C=C1/C(=C\C=C2/CCCC3(C)C2CCC3[C@@H](C)CCCCC(O)(CC)CC)C[C@@H](O)C[C@@H]1O` (stereo not given in full) the figure was 200.
`C=C1/C(=C\C=C2/CCCC3(C)C2CCC3[C@@H](C)OCCCC(C)(C)O)C[C@@H](O)C[C@@H]1O` (stereo not given in full): the Relative differentiating activity is listed as 1176.
The same measure, in the same setting: with `C=C1/C(=C\C=C2/CCCC3(C)C2CCC3[C@H](C)CCCCC(O)(CC)CC)C[C@@H](O)C[C@@H]1O` (stereo not given in full) the figure was 5; with `C=C1/C(=C\C=C2/CCCC3(C)C2CCC3[C@@H](C)/C=C/CCC(O)(CC)CC)C[C@@H](O)C[C@@H]1O` (stereo not given in full), 1000.
With `C=C1/C(=C\C=C2/CCC[C@]3(C)[C@@H](C(C)OCCCC(O)(CC)CC)CC[C@@H]23)C[C@@H](O)C[C@@H]1O` (single isomer, unassigned) [LEXACALCITOL], the Relative differentiating activity was 20.
Compound `C=C1/C(=C\C=C2/CCC[C@]3(C)[C@@H]([C@@H](C)OCCCC(O)(CC)CC)CC[C@@H]23)C[C@@H](O)C[C@@H]1O` [LEXACALCITOL] registered a Relative differentiating activity of 20000.
Compound `C=C1/C(=C\C=C2/CCC[C@]3(C)[C@@H]([C@H](C)/C=C/C=C/C(O)(CC)CC)CC[C@@H]23)C[C@@H](O)C[C@@H]1O` [SEOCALCITOL] had a Relative differentiating activity of 67.

The values above are taken from ChEMBL document CHEMBL1131535, “Conformation-function relationship of vitamin D: conformational analysis predicts potential side-chain structure” (1998).
